For one data set, the system named is human erythrocytes. The data set can be described thus: Minimum hemolytic concentration (MHC). The class given is cell-based. Here is the method: The MHCs were measured by the method as described in Chen et al.: peptides were added to 1% human erythrocytes in phosphate-buffered saline (0.08 mol/L NaCl, 0.043 mol/L Na2HPO4, 0.011 mol/L KH2PO4) and then kept at 37°C for 1 h in microtiter plates. The supernatants were collected by centrifugation (800 g), and the OD562 of each supernatant was determined. We chose a 0.1% Triton X-100 solution as the positive control because this solution causes the total release of hemoglobin. We defined the MHC as the highest peptide concentration that caused no detectable release of hemoglobin (the ratio of the OD562 for the peptide solution to the OD562 for the positive control should be less than 1%).

Data set [1] concerns Pseudomonas aeruginosa CMCC10104. In kind it is cell-based. As to conditions: for MIC: Pseudomonas aeruginosa CMCC10104, microtiter dilution, LB medium without salt, 10^4-10^5 CFU/mL, 37°C, 24 h, OD620, Table 2. On the procedure: (§1) All strains were cultured on Mueller-Hinton medium.
Data set [2] relates to Acinetobacter baumannii clinical isolates. The class given is cell-based. As to conditions: microtiter dilution, 37°C, 24 h, OD620. Here is the method: as §1
Data set [3] can be described thus: Circular dichroism, percentage helicity. In kind it is physicochemical. As to conditions: CD, 100 μM peptide, 10 mM sodium phosphate pH 7.5, 50% trifluoroethanol. On the procedure:
CD spectra were obtained with a Jasco J-710 instrument (Jasco, Tokyo, Japan) utilizing quartz cells with a 2 mm path length and peptide concentrations of 100 μM in a 10 mM sodium phosphate buffer with a pH of 7.5 containing 50% trifluoroethanol. Each spectrum was obtained from an average of 5 pairs of duplicates, and the percentage helicity of each peptide was determined.
The hydrophobic moments were determined with the HeliQuest web server, which can be used to evaluate amphipathicity. The percent helix values were determined based on CD spectra.
A general note: Circular dichroism is widely used to follow secondary structure.

For data set [4], the system named is Gram-positive and Gram-negative bacteria and 22 clinical isolates. As to conditions: overall statement. The source says:
(§2) Twenty-two clinical isolates and night standard laboratory strains were used in this study: 4 Acinetobacter baumannii, 4 Pseudomonas aeruginosa, 3 Staphylococcus epidermidis, and 6 Klebsiella pneumonia (Changhai Hospital, Shanghai, China); 5 methicillin-resistance Staphylococcus aureus (Ruijin Hospital, Shanghai, China); Staphylococcus aureus CMCC26003; Bacillus subtilis DB430;Bacillus pumilus CMCC63202; Micrococcus luteus CMCC28001; E. coli ATCC8099; Klebsiella pneumoniae CMCC46117;Salmonella paratyphi B CMCC50094; Pseudomonas aeruginosa CMCC10104; Micrococcus S1.634. In addition, Pseudomonas aeruginosa CMCC10104 was used during the design of the peptides for evaluating antimicrobial activities. All strains were cultured on Mueller-Hinton medium.
(§3) The antibacterial activities of the different peptides were evaluated using the minimum inhibitory concentration (MIC). The process followed the standard microtiter dilution method in LB medium without salt. Briefly, bacteria were grown overnight in LB at 37°C and diluted in the same medium. Then, 100 μL of the medium was dispensed into each well of a 96-well plate. The number of bacteria was between 10^4 and 10^5 CFU/mL. Serial dilutions of peptides were performed consecutively in each well in 10 μL. Plates were incubated at 37°C for 24 h; then, the OD620 was measured to determine the MIC of each peptide.

The subject of data set [5] is Soluble wall Micrococcus S1.634. As to conditions: microtiter dilution, 37°C, 24 h, OD620.
Text: as §2, §3

The test system of the next data set is Bacillus subtilis DB430. The following applies: microtiter dilution, 37°C, 24 h, OD620.
Text: as §2, §3

Data set [6] concerns Bacillus pumilus CMCC63202. As to conditions: microtiter dilution, 37°C, 24 h, OD620.
Text: as §2, §3

The test system of data set [7] is Micrococcus luteus CMCC28001. The following applies: microtiter dilution, 37°C, 24 h, OD620.
Text: as §2, §3

For the next data set, the system named is E. coli ATCC8099. As to conditions: microtiter dilution, 37°C, 24 h, OD620.
Text: as §2, §3

Data set [8] concerns Klebsiella pneumonia clinical isolates. As to conditions: range over 6 clinical isolates.
Text: as §2, §3

For the next data set, the system named is MRSA clinical isolates. The following applies: range over 5 clinical MRSA isolates.
Text: as §2, §3

Data set [9] concerns Staphylococcus epidermidis clinical isolates. As to conditions: range over 3 clinical isolates.
Text: as §2, §3

Data set [10] has as its system Salmonella paratyphi B CMCC50094. The following applies: microtiter dilution, 37°C, 24 h, OD620.
Text: as §2, §3

Data set [11] has as its system Staphylococcus aureus CMCC26003. The following applies: microtiter dilution, 37°C, 24 h, OD620.
Text: as §2, §3

The subject of data set [12] is Pseudomonas aeruginosa clinical isolates. As to conditions: range over 4 clinical isolates.
Text: as §2, §3

Data set [13] has as its system Klebsiella pneumoniae CMCC46117. As to conditions: microtiter dilution, 37°C, 24 h, OD620.
Text: as §2, §3

The mark [14] stands for this setting: 1% human erythrocytes in PBS, 37°C, 1 h, OD562, highest concentration with no detectable hemoglobin release (<1% of 0.1% Triton X-100).
The mark [15] stands for this setting: MHC/MIC ratio, MHC human erythrocytes, MIC Pseudomonas aeruginosa.

Read-outs that look alike come from different tables or passages of the source. No end group written: not given here. A value given as a limit tells only on which side of the number the result lay.

By MIC is commonly meant the least concentration at which growth counts as inhibited. The substance KFKSFIKKLTSKFLHSAKKF-NH2 [Peptide F2] showed an MHC in the data set on human erythrocytes (setting [14]) of 250 µg/mL. Besides, in data set [1] (setting [15]), the Therapeutic index was found to be 20. The minimal inhibitory concentration (MIC) in data set [1] turned out to be 12.5 µg/mL.
Regarding “KWKLFKKIPKFLHLAKKF-NH2 [Peptide P18, reference compound]”, the MHC in the data set with human erythrocytes was 250 µg/mL. Moreover, the minimal inhibitory concentration (MIC) in data set [2] (clinical isolate b-01) was 6.25 µg/mL; in [2] (clinical isolate b-02), 25 µg/mL; in data set [2] (clinical isolate b-03) it was 12.5 µg/mL; in data set [2] (clinical isolate b-04), 12.5 µg/mL; in data set [1] it was 25 µg/mL. In addition, the Therapeutic index in data set [1] (CMCC10104, 24 h) was determined as 10.
Regarding KWKSFIKKAKTSFLHSAKKF-NH2 [Peptide A9], in the data set with human erythrocytes (setting [14]), the MHC is more than 500 µg/mL. The Therapeutic index in data set [1] (setting [15]) came to 20. Besides, the minimum inhibitory concentration (MIC) in [1] was determined as 25 µg/mL.
For the substance KWKSFIKKKTSKFLHSAKKF-NH2 [Peptide K9], in [1], the minimum inhibitory concentration (MIC) was more than 50 µg/mL.
For “KWKSFIKKLASKFLHSAKKF-NH2 [Peptide A10, S16 derivative by single amino acid substitution]”, the MHC in the data set with human erythrocytes (setting [14]) stood at 250 µg/mL. Besides, the “%Helix” value in data set [3] turned out to be 72.5%. For the same substance, in [1] (setting [15]), the Therapeutic index is 20. For the same substance, the MIC in [1] stood at 12.5 µg/mL.
Substance KWKSFIKKLLSKFLHSAKKF-NH2 [Peptide L10] came in with an MHC with human erythrocytes (setting [14]) of less than 125 µg/mL. Further, in [1] (setting [15]), the Therapeutic index is reported as 10. In addition, the minimal inhibitory concentration (MIC) in [1] turned out to be 12.5 µg/mL.
The like results for KWKSFIKKLTDKFLHSAKKF-NH2 [Peptide D11] were, in that order, more than 500 µg/mL, 20 and 25 µg/mL.
For KWKSFIKKLTKKFLHSAKKF-NH2 [Peptide K11], in data set [4], the MICs result is recorded as “less than 10 μg/mL”. Besides, the minimum inhibitory concentration (MIC) is 1 µg/mL in data set [5]; 2 µg/mL against Bacillus subtilis DB430; 0.5 µg/mL in data set [6]; 2 µg/mL in [7]; 0.5 µg/mL against E. coli ATCC8099; 0.5−4.0 μg/mL in data set [8]. Further, the MIC with MRSA clinical isolates was 0.25−4 μg/mL; in data set [9], 0.5−8 μg/mL; in [10], 2 µg/mL; in data set [11], 0.5 µg/mL; in data set [12], 1.0−8.0 μg/mL; in data set [13], 2 µg/mL. Also, the MIC in [2] (clinical isolate b-01) was 0.8 µg/mL; in [2] (clinical isolate b-02), 3.125 µg/mL; in [2] (clinical isolate b-04), 1.6 µg/mL; in data set [1], 1.6 µg/mL. Besides, the Therapeutic index in data set [1] (setting [15]) came out at 320.
For the substance “KWKSFIKKLTLKFLHSKKKF-NH2 [Peptide L11, S16 derivative by single amino acid substitution]”, the MIC in [1] was more than 50 µg/mL.
For “KWKSFIKKLTSKALHSAKKF-NH2 [Peptide A13, S16 derivative by single amino acid substitution]”, the MHC with human erythrocytes (setting [14]) was more than 500 µg/mL. Moreover, in [3], the “%Helix” value was found to be 45.9%. Besides, the Therapeutic index in data set [1] (setting [15]) turned out to be 80. Moreover, the minimum inhibitory concentration (MIC) in data set [1] amounted to 6.25 µg/mL.
KWKSFIKKLTSKFLHLAKKF-NH2 [CP-P] registered an MHC in the data set on human erythrocytes (setting [14]) of 250 µg/mL. For the same substance, in data set [1] (setting [15]), the Therapeutic index stood at 20. Further, the MIC in [1] is 12.5 µg/mL.
KWKSFIKKLTSKFLHSADKF-NH2 [Peptide D18] returned an MHC with human erythrocytes (setting [14]) of more than 500 µg/mL. The Therapeutic index in data set [1] (setting [15]) was found to be 20. In addition, in data set [1], the minimum inhibitory concentration (MIC) worked out at 25 µg/mL.
In turn, KWKSFIKKLTSKFLHSAKKF-NH2 [Peptide S16] showed an MHC with human erythrocytes (setting [14]) of more than 500 µg/mL. Besides, the minimum inhibitory concentration (MIC) came to 3.125 µg/mL in data set [2] (clinical isolate b-01); 6.25 µg/mL in [2] (clinical isolate b-02); 6.25 µg/mL in data set [2] (clinical isolate b-03); 3.125 µg/mL in [2] (clinical isolate b-04); 3.125 µg/mL in data set [1]. Besides, the Therapeutic index in [1] (setting [15]) was 160.
In the data set with human erythrocytes (setting [14]), KWKSFIKKLTSKFLHSAKKN-NH2 [Peptide N20] came in with an MHC of more than 500 µg/mL. In [1] (setting [15]), the Therapeutic index amounted to 80. Further, the minimal inhibitory concentration (MIC) in data set [1] turned out to be 6.25 µg/mL.
In the data set on human erythrocytes (setting [14]), “KWKSFIKKLTSKFLHSANKF-NH2 [Peptide N18, S16 derivative by single amino acid substitution]” had an MHC of more than 500 µg/mL. Further, the “%Helix” value in data set [3] is given as 37.2%. Further, the Therapeutic index in data set [1] (setting [15]) was found to be 80. Besides, in data set [1], the minimum inhibitory concentration (MIC) came to 6.25 µg/mL.
KWKSFIKKLTSKFLHSKKKF-NH2 [Peptide K17] had an MHC in the data set with human erythrocytes (setting [14]) of more than 500 µg/mL. Besides, in data set [1] (setting [15]), the Therapeutic index worked out at 40. In addition, in data set [1], the MIC came to 12.5 µg/mL.
Turning to KWKSFIKKLTSKKLHSAKKF-NH2 [Peptide K13], the MIC in data set [1] was more than 50 µg/mL.
The same measure, in the same setting: the same measure for KWKSFIKKRTSKFLHSAKKF-NH2 [Peptide R9]: more than 50 µg/mL.
KWKSFIKKSTSKFLHSAKKF-NH2 [Peptide S9] returned an MHC with human erythrocytes (setting [14]) of more than 500 µg/mL. The Therapeutic index in data set [1] (setting [15]) was 10. Besides, in data set [1], the minimum inhibitory concentration (MIC) is 50 µg/mL.
The substance KWKSFINKLTSKFLHSAKKF-NH2 [Peptide N7] registered an MHC in the data set with human erythrocytes (setting [14]) of more than 500 µg/mL. The Therapeutic index in data set [1] (setting [15]) stood at 40. In data set [1], the MIC turned out to be 12.5 µg/mL.
As to KWKSFKKKLTSKFLHSAKKF-NH2 [Peptide K6], the MIC in data set [1] was 12.5 µg/mL.
As for KWNSFIKKLTSKFLHSAKKF-NH2 [Peptide N3], the MIC in data set [1] stood at 12.5 µg/mL.

These data come from article PMC3299254 (International Journal of Microbiology, 2012).
